Assay results reported in patent US8551727B2, “Gold nanoparticle based protease imaging probes and use thereof” (Korea Institute of Science and Technology, priority 2007, dated 2013).

Key:
[1] = Particle analysis of MMP selective gold nanosensor (TEM and light scattering); assay type: physicochemical
Description: For the gold nanoparticle derivatives prepared in Example 1-3, the size of nanoparticle was measured using transmission electron microcopy (TEM) and light scattering (Brookhaven Instrument).

MMP-2 = target: T1, MMP-2 (Homo sapiens, UniProt P08253); assay: Fluorescence exhibition due to enzyme degradation of gold nanosensor by activated MMP-2 (96-well, Kodak Image Station); assay type: biochemical; conditions: 37° C., 2 hours
T1 sequence (P08253 110-660): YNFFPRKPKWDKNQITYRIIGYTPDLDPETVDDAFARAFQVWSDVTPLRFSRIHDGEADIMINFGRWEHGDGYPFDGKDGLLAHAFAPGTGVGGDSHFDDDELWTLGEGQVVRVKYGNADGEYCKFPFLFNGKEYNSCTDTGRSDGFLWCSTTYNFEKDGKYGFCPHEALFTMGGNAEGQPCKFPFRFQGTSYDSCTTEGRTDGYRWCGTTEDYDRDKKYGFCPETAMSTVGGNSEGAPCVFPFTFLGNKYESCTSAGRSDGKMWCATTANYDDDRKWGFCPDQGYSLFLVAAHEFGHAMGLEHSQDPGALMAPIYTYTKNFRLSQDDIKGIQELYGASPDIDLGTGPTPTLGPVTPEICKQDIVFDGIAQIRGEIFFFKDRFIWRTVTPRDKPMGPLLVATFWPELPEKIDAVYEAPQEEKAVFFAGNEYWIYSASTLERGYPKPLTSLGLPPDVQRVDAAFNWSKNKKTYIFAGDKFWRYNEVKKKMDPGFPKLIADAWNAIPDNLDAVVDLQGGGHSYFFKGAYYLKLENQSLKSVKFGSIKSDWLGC
Description: (§1) A gold nanosensor was reacted respectively with MMP-2 and MMP-13 each activated in the 96-well, a scramble peptide (i.e., a peptide having the same amino acid contained structure but having different sequence so as not to act as a substrate with respect to a specific enzyme) and MMP-2/MMP-2 inhibitor at temperature of 37° C. for 2 hours, and thereafter a fluorescence exhibition due to the enzyme degradation was observed.
(§2) First, in order to activate the MMP-2 and MMP-13, the MMPs were added into a TCNB mixture (containing 0.1M of tris, 5 mM of calcium chloride, 200 mM of NaCl and 0.1% of Brij) having 2.5 mmol/L of p-aminophenyl mercuric acid added thereto, so as to be reacted at temperature of 37° C. for 1 hour. The activated MMP-2 and MMP-13 were reacted with the gold nanosensor in 200 μL of mixture in each well at temperature of 37° C. for 2 hours, and thereafter the degree of the fluorescence was observed using Kodak Image Station 4000MM Digital Imaging System built in a […] (Charge Coupled Device) camera.
The MMP gold nanosensor was used to quantitatively analyze the concentration of MMP-2 protease. In more detail, according to the same experimental way to that in Example 2-2, each of activated MMP-2s having concentrations of 0, 1.4, 3.5, 7 and 14 nmol/L, respectively, was added to the MMP-2 gold nanosensor to be reacted at temperature of 37° C. for 2 hours, and then the degree of the fluorescence was observed using the Kodak Image Station 4000MM Digital Imaging System.

MMP-13 = MMP-13 (Homo sapiens, UniProt P45452); assay: Fluorescence exhibition due to enzyme degradation of gold nanosensor by activated MMP-13 (96-well, Kodak Image Station); assay type: biochemical; conditions: state (c), 37° C., 2 hours
Description: as §1, §2

[2] = test system: Invasive squamous cell carcinoma (SCC7); assay: Real-time imaging of cancerous tissue in cancer animal models; assay type: in vivo, C3H/HeN mouse; conditions: 100 ul
Description: Invasive squamous cell carcinoma (SCC7) was injected into C3H/HeN mouse to create a cancer animal model. For the cancerous tissue with a size of more than 5 mm, the MMP-2 gold nanosensor was injected into the cancerous tissue, to thereafter estimate the possibility of imaging the cancer cell.
The invasive squamous cell carcinoma (SCC7) is known as a cancer cell expressing a great amount of MMP-2. The experiment was performed with respect to three animal test groups including a normal mouse having MMP-2 gold nanosensor (100 ul, 10 nM/mL) injected thereinto and a cancer mouse also having MMP-2 gold nanosensor (100 ul, 10 nM/mL) injected thereinto, and a cancer mouse having both MMP-2 gold sensor and MMP-2 inhibitor injected thereinto.

[3] = test system: cancerous tissue overexpressing MMP-2 (SCC7); assay: Fluorescence of gold nanosensor in removed cancerous tissue; assay type: in vivo, C3H/HeN mouse
Description: Depending on whether the MMP-2 inhibitor was injected into the cancerous tissue overexpressing MMP-2, the fluorescence of the MMP-2 gold nanosensor was observed.

- fluorescence, MMP-2 added (MMP-2; MMP-2 added): bright fluorescence was exhibited
- fluorescence, MMP-2 not added (MMP-2; state (a), no MMP-2): fluorescence quenched
- fluorescence in the reaction with MMP-2 inhibitor (MMP-2; state (e), MMP-2/MMP-2 inhibitor): no fluorescence is emitted
- fluorescence with respect to MMP-13 (MMP-13): rarely exhibits fluorescence
Substance: Cy5.5-GPLGLFARC-Gold [MMP selective gold nanosensor]
- size of nanoparticle (average) [1]: approximately 20 nm
- fluorescence versus MMP-2 concentration (MMP-2; activated MMP-2 at 0, 1.4, 3.5, 7 and 14 nmol/L): increased in proportion to the concentration of the added MMP-2 enzyme
- fluorescence in mouse with cancer cell ([2]; Au NP (SCC7 tumor), 10 nM/mL injected into cancerous tissue): emitted high fluorescence as time elapses
- fluorescence in normal mouse ([2]; normal mouse without the cancer cell, 10 nM/mL injected): did not exhibit fluorescence
- fluorescence in removed cancerous tissue treated with MMP-2 inhibitor ([3]; cancerous tissue (+inh)): remarkably low fluorescence
- fluorescence in removed cancerous tissue not treated with MMP-2 inhibitor ([3]; cancerous tissue (−inh)): remarkably high fluorescence
